Paper PMC3433420 (PLoS ONE, 2012)
Residues, ends and D or L forms follow the SMILES beside them.

Assays:
Assay in all cases: In-house protein microarrays (with or without 5 mM DTT), protein named per line
Assay type in all cases: binding
SH2 and PTB domains [1] = target: T1, SH2 and PTB domains (Homo sapiens, UniProt P51451); conditions: protein BLK
T1 construct: thioredoxin; made in house; host or cells: BL21(DE3)pLysS E. coli
How it was run: (§1)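 Recombinant domains (~40 µM) spotted in duplicate on aldehyde slides, quenched 1 h at room temperature in HEPES/KCl/Tween-20 buffer pH 7.8 with 5 mM DTT and 1% BSA, then probed with rhodamine-labeled peptide. Thioredoxin-subtracted mean fluorescence fitted for KD.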

SH2 and PTB domains [2] = target: T2, SH2 and PTB domains (Homo sapiens, UniProt P07947); conditions: protein YES1
T2 construct: thioredoxin; made in house; host or cells: BL21(DE3)pLysS E. coli
How it was run: as §1

SH2 and PTB domains [3] = target: T3, SH2 and PTB domains (Homo sapiens, UniProt O43639); conditions: protein NCK2; PM assay replicate # 39307; array fabrication # 39286
T3 construct: thioredoxin; made in house; host or cells: BL21(DE3)pLysS E. coli
How it was run: as §1

SH2 and PTB domains [4] = target: T4, SH2 and PTB domains (Homo sapiens, UniProt Q9BRG2); conditions: protein SH2D3A; PM assay replicate # 39307; array fabrication # 39286
T4 construct: thioredoxin; made in house; host or cells: BL21(DE3)pLysS E. coli
How it was run: as §1

SH2 and PTB domains [5] = target: T5, SH2 and PTB domains (Homo sapiens, UniProt O60880); conditions: protein SH2D1A; PM assay replicate # 39307; array fabrication # 39286
T5 construct: thioredoxin; made in house; host or cells: BL21(DE3)pLysS E. coli
T5 sequence (O60880 1-128): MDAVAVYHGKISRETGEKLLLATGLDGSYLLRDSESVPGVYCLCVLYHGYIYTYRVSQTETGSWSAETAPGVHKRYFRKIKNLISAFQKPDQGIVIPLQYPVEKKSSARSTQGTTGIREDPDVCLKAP
How it was run: as §1

SH2 and PTB domains [6] = target: T6, SH2 and PTB domains (Homo sapiens, UniProt O00459); conditions: protein PIK3R2-NC; PM assay replicate # 39307; array fabrication # 39286
T6 construct: thioredoxin; made in house; host or cells: BL21(DE3)pLysS E. coli
How it was run: as §1

SH2 and PTB domains [7] = target: T7, SH2 and PTB domains (Homo sapiens, UniProt P16885); conditions: protein PLCG2-NC
T7 construct: thioredoxin; made in house; host or cells: BL21(DE3)pLysS E. coli
T7 sequence (P16885 1-1265): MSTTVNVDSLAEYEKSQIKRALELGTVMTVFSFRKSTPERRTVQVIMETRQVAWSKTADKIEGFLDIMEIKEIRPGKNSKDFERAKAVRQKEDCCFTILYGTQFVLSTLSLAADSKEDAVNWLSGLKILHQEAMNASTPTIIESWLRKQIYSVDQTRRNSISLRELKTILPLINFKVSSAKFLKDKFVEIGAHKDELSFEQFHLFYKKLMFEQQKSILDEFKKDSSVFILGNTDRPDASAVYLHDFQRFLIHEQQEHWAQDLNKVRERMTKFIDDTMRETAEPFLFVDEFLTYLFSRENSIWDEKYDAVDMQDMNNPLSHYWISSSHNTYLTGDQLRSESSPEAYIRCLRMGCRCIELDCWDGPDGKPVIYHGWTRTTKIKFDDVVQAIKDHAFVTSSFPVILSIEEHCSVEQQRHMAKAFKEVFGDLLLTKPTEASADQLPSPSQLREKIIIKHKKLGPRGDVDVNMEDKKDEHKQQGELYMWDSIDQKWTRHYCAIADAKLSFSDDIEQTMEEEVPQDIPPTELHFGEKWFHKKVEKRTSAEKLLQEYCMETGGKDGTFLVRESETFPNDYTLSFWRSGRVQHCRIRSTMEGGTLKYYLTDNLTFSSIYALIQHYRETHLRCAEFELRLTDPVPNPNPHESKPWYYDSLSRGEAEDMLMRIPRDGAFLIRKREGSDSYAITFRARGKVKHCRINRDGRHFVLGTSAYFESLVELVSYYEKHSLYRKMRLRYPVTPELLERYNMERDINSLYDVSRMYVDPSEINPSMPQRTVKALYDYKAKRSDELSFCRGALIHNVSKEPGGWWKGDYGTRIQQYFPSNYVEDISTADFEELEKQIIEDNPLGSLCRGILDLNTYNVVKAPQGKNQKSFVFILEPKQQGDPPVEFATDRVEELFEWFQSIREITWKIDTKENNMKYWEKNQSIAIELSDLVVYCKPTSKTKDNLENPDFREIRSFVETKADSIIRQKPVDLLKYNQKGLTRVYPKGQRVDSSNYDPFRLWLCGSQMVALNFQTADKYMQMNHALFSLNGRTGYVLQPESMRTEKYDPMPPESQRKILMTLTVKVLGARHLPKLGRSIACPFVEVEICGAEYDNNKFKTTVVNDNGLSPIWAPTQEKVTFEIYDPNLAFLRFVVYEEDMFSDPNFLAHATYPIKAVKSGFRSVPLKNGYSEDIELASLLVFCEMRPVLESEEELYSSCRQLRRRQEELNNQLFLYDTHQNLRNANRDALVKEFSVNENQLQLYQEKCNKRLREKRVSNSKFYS
How it was run: as §1

SH2 and PTB domains [8] = target: T8, SH2 and PTB domains (Homo sapiens, UniProt Q92569); conditions: protein PIK3R3-NC; PM assay replicate # 39307; array fabrication # 39286
T8 construct: thioredoxin; made in house; host or cells: BL21(DE3)pLysS E. coli
How it was run: as §1

[9] = PM assay replicate # 39307, array fabrication # 39286
[10] = PM assay replicate # 39352, array fabrication # 39336

T1 sequence (P51451 whole entry, the tested form may be a part): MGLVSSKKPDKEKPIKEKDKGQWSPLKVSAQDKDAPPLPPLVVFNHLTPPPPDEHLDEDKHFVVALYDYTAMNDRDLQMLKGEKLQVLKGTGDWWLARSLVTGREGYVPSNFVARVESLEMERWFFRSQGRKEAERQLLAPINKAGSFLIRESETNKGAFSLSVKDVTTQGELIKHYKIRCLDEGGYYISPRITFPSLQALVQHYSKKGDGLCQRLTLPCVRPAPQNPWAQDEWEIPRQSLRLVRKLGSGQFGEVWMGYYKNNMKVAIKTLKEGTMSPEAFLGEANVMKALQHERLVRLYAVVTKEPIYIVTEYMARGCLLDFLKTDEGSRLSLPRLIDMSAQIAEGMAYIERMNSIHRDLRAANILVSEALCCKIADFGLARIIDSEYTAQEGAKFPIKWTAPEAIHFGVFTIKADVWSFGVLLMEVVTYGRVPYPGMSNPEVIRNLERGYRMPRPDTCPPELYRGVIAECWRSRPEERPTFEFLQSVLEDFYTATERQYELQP
T2 sequence (P07947 whole entry, the tested form may be a part): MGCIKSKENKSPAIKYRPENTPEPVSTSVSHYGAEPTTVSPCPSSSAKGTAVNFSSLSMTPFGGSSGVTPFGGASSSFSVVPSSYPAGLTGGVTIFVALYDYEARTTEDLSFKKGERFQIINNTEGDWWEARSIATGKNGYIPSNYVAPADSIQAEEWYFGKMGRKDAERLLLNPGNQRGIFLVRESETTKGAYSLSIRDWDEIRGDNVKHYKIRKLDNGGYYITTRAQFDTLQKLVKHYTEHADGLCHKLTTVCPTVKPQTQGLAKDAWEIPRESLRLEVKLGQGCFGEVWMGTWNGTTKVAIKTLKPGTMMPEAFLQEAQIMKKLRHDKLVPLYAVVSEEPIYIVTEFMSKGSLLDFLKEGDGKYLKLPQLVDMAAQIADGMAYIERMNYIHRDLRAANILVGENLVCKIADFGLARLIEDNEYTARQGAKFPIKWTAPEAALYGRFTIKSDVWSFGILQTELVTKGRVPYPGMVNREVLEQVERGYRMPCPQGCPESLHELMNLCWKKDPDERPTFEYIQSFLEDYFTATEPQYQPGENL
T3 sequence (O43639 whole entry, the tested form may be a part): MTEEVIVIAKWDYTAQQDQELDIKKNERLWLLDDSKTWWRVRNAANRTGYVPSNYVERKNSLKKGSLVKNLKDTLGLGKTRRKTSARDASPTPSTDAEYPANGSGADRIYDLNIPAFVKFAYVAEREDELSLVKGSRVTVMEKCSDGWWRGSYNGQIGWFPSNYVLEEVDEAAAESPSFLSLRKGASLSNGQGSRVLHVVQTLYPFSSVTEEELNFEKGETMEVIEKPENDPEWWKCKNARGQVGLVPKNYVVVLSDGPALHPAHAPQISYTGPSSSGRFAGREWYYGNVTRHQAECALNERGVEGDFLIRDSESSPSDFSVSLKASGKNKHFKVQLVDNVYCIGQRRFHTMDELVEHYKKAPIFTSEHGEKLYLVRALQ
T4 sequence (Q9BRG2 whole entry, the tested form may be a part): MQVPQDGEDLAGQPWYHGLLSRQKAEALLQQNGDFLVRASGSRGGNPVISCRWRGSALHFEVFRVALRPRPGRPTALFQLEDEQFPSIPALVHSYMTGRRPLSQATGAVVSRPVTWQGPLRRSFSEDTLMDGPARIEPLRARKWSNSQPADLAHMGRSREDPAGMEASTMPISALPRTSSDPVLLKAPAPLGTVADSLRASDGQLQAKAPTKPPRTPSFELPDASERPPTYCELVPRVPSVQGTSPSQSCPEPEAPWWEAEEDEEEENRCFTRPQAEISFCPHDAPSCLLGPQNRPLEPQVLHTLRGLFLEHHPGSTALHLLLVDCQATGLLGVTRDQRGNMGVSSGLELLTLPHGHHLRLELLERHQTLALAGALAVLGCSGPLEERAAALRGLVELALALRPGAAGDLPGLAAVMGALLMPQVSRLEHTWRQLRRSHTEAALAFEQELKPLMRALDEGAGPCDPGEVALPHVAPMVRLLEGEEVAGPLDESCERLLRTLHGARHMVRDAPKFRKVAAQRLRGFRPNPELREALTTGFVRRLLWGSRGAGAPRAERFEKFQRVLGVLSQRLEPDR
T6 sequence (O00459 whole entry, the tested form may be a part): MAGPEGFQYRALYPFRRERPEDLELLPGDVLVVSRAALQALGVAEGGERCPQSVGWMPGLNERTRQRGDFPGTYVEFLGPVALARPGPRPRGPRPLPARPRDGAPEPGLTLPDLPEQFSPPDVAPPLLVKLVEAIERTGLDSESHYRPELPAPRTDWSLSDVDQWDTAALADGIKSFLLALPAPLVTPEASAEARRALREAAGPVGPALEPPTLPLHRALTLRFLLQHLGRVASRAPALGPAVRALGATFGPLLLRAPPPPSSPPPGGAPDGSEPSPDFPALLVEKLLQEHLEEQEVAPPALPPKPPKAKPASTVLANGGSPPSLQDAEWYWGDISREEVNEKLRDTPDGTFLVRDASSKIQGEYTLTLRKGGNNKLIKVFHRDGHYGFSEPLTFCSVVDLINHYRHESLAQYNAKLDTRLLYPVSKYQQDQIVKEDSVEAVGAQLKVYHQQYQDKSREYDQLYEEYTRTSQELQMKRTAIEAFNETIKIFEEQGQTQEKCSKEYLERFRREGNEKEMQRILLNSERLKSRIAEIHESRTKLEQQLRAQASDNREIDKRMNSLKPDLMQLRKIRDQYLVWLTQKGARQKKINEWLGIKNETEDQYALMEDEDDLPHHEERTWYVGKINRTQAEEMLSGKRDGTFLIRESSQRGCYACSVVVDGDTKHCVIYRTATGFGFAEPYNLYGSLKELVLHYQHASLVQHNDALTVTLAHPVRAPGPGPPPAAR

CC[C@H](C)[C@H](NC(=O)[C@H](CC(N)=O)NC(=O)[C@H](CC(N)=O)NC(=O)[C@H](CCCCN)NC(=O)[C@H](CC(C)C)NC(=O)[C@H](Cc1ccc(OP(=O)(O)O)cc1)NC(=O)[C@H](CCC(=O)O)NC(=O)[C@H](C)NC(=O)[C@H](CCCCN)NC(=O)CNC(=O)[C@H](CC(C)C)NC(=O)[C@@H](NC(=O)[C@H](CC(N)=O)NC(=O)[C@H](C)NC(=O)[C@@H](N)Cc1ccccc1)[C@@H](C)O)C(=O)N[C@@H](CC(C)C)C(=O)N[C@@H](CO)C(=O)N[C@@H](CC(=O)O)C(=O)O [ErbB4 pY1221 (18-mer)] (HELM PEPTIDE1{F.A.N.T.L.G.K.A.E.[O=C([C@H](Cc1ccc(OP(=O)(O)O)cc1)N[*:1])[*:2]].L.K.N.N.I.L.S.D}$$$$V2.0)
Kd (SH2 and PTB domains [1]; [9]): 0.58 µM | Kd (SH2 and PTB domains [1]; PM assay replicate # 39351, array fabrication # 39336): 1.15 µM | Kd (SH2 and PTB domains [1]; [10]): 1.16 µM | Kd (SH2 and PTB domains [2]; [9]): 0.82 µM | Kd (SH2 and PTB domains [2]; [10]): 1.32 µM | Kd (SH2 and PTB domains [3]): 0.21 µM | Kd (SH2 and PTB domains [4]): 0.61 µM | Kd (SH2 and PTB domains [5]): 0.77 µM | Kd (SH2 and PTB domains [6]): 1.34 µM | Kd (SH2 and PTB domains [7]; [9]): 1.38 µM | Kd (SH2 and PTB domains [7]; [10]): 1.25 µM | Kd (SH2 and PTB domains [8]): 0.54 µM
